Experimental data taken from PMC9226124, “Macrocycle-stabilization of its interaction with 14-3-3 increases plasma membrane localization and activity of CFTR” (Nature Communications, 2022).
Several values for one entry are separate records, joined by “and”; a condition that tells them apart may be missing. Identical values can stand only once.

Columns and labels:
Assay type in all cases: binding
14-3-3β/IRS1 peptide = target: T1, 14-3-3β/IRS1 peptide (Homo sapiens, UniProt P31946); experiment: FP assay of 14-3-3 partner protein peptide, IRS1; details: 100 µM compound
T1 construct: His6 (cleaved yes); made in house
T1 sequence (P31946 1-246): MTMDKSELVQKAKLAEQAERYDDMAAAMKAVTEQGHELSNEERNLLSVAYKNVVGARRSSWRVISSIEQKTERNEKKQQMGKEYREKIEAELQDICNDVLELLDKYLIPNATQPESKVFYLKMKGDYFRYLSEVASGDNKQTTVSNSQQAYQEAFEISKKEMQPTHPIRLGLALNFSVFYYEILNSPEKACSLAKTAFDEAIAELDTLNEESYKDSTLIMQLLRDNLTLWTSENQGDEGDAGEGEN
Description: (§1) The FITC-labeled peptides were dissolved in FP buffer (10 mM HEPES pH 7.4, 150 mM NaCl, 0.1% Tween20, 1 mg/mL BSA) to a final concentration of 100 nM or 10 nM. For the dose-response assays, a 14-3-3β concentration of 10 μM was used while titrating the compounds in a two-times dilution series and, for the other assays, a dilution series of 14-3-3β was made with constant concentration of compound. The dilution series were made in 384 Corning Black Round Bottom well plates and their polarization was measured with a Tecan Infinite F500 plate reader (ex. = 485 nm, em. = 535 nm). The method of fitting of the curves was: “log(agonist) vs. response – Variable slope (four parameters)” from GraphPad Prism. The equation is Y = Bottom + (Top-Bottom)/(1 + 10^((LogEC50-X)*HillSlope)).
(§2) Supplementary Figure 2. Stabilization of the interaction between 14-3-3β and a collection of different 14-3-3 partner protein peptides by CY00742 4. […] Background polarization was subtracted from all values, n=3 technical replicates. Source data are provided as a Source Data file.
(§3) (1 picture or pasted object on this page, not shown here)

14-3-3β/Foxo3 peptide = target: T2, 14-3-3β/Foxo3 peptide (Homo sapiens, UniProt P31946); experiment: FP assay of 14-3-3 partner protein peptide, Foxo3; details: CY007424 100 μM
T2 construct: His6 (cleaved yes); made in house
T2 sequence (P31946 1-246): T1 sequence (P31946 1-246)
Description: as §1, §2, §3

14-3-3β/p53 peptide = target: T3, 14-3-3β/p53 peptide (Homo sapiens, UniProt P31946); experiment: FP assay of 14-3-3 partner protein peptide, p53; details: CY007424 100 μM
T3 construct: His6 (cleaved yes); made in house
T3 sequence (P31946 1-246): T1 sequence (P31946 1-246)
Description: as §1, §2, §3

[1] = target: T4, (Homo sapiens, UniProt P13569+P31946); experiment: FP assay, 14-3-3β titration at constant compound concentration (apparent KD); details: FC 100 uM
T4 construct: His6 (cleaved yes); made in house; peptide synthetic
T4 sequence (P13569 747-774 limits assumed, one chain of several): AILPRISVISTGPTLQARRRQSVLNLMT

N=C(N)NCCCC1NCc2ccccc2Sc2ccccc2CNC(=O)C(Cc2ccc(O)cc2)NC(=O)C(CCCN)NC1=O (stereo not shown) [CY007424]
stabilization of the 14-3-3/IRS1 peptide complex (14-3-3β/IRS1 peptide): some stabilization of the complex
FP signal (14-3-3β/Foxo3 peptide; 14-3-3β 3.8147e-9 M): 0.3333
FP signal (14-3-3β/Foxo3 peptide; 14-3-3β 3.05176e-8 M): 4.333 and 3.333
FP signal (14-3-3β/Foxo3 peptide; 14-3-3β 6.10352e-8 M): 7.333 and 6.333
FP signal (14-3-3β/Foxo3 peptide; 14-3-3β 1.2207e-7 M): 14.3333 and 19.3333 and 15.3333
FP signal (14-3-3β/Foxo3 peptide; 14-3-3β 2.44141e-7 M): 27.3333 and 29.3333 and 28.3333
FP signal (14-3-3β/Foxo3 peptide; 14-3-3β 4.88281e-7 M): 45.3333 and 46.3333 and 43.3333
FP signal (14-3-3β/Foxo3 peptide; 14-3-3β 9.76563e-7 M): 62.3333 and 55.3333
FP signal (14-3-3β/Foxo3 peptide; 14-3-3β 1.95313e-6 M): 71.3333 and 70.3333
FP signal (14-3-3β/Foxo3 peptide; 14-3-3β 3.90625e-6 M): 88.3333 and 86.3333 and 85.3333
FP signal (14-3-3β/Foxo3 peptide; 14-3-3β 7.8125e-6 M): 104.333 and 105.333 and 107.333
FP signal (14-3-3β/Foxo3 peptide; 14-3-3β 1.5625e-5 M): 129.333 and 126.333 and 125.333
FP signal (14-3-3β/Foxo3 peptide; 14-3-3β 3.125e-5 M): 145.333 and 149.333 and 146.333
FP signal (14-3-3β/Foxo3 peptide; 14-3-3β 6.25e-5 M): 167.333 and 166.333
FP signal (14-3-3β/Foxo3 peptide; 14-3-3β 0.000125 M): 181.333 and 182.333 and 185.333
FP signal (14-3-3β/Foxo3 peptide; 14-3-3β 0.00025 M): 195.333 and 193.333 and 196.333
FP signal (14-3-3β/p53 peptide; 14-3-3β 59.6 pM): 4 and 3
FP signal (14-3-3β/p53 peptide; 14-3-3β 119.2 pM): 4 and 3
FP signal (14-3-3β/p53 peptide; 14-3-3β 3.8147e-9 M): 4 and 7
FP signal (14-3-3β/p53 peptide; 14-3-3β 7.62939e-9 M): 7 and 6 and 4
FP signal (14-3-3β/p53 peptide; 14-3-3β 1.52588e-8 M): 5 and 3 and 4
FP signal (14-3-3β/p53 peptide; 14-3-3β 3.05176e-8 M): 3 and 5 and 4
FP signal (14-3-3β/p53 peptide; 14-3-3β 6.10352e-8 M): 10 and 9
FP signal (14-3-3β/p53 peptide; 14-3-3β 1.2207e-7 M): 13 and 15
FP signal (14-3-3β/p53 peptide; 14-3-3β 2.44141e-7 M): 15 and 18
FP signal (14-3-3β/p53 peptide; 14-3-3β 4.88281e-7 M): 20 and 24 and 21
FP signal (14-3-3β/p53 peptide; 14-3-3β 9.76563e-7 M): 21 and 25 and 23
FP signal (14-3-3β/p53 peptide; 14-3-3β 1.95313e-6 M): 20 and 22 and 21
FP signal (14-3-3β/p53 peptide; 14-3-3β 3.90625e-6 M): 21 and 20
FP signal (14-3-3β/p53 peptide; 14-3-3β 7.8125e-6 M): 24 and 20 and 21
FP signal (14-3-3β/p53 peptide; 14-3-3β 1.5625e-5 M): 17 and 22 and 25
FP signal (14-3-3β/p53 peptide; 14-3-3β 3.125e-5 M): 26 and 24 and 29
FP signal (14-3-3β/p53 peptide; 14-3-3β 6.25e-5 M): 31 and 32 and 34
FP signal (14-3-3β/p53 peptide; 14-3-3β 0.000125 M): 44 and 45 and 48
FP signal (14-3-3β/p53 peptide; 14-3-3β 0.00025 M): 66 and 67 and 63

C=CC(C)(C)OC[C@H]1O[C@H](O[C@@H]2C3=C([C@H](C)COC(C)=O)C[C@H](O)[C@]3(C)/C=C3/[C@@H](COC)CC[C@H]3[C@@H](C)[C@H]2O)[C@H](O)[C@@H](OC(C)=O)[C@@H]1O [FC-A, fusicoccin A, reference compound]
Polarization, Everage no 14-3-3 ([1]; average of no 14-3-3 wells): 22.00
Polarization, no 14-3-3 ([1]; no 14-3-3, peptide 100 nM, replicates, listed as FC): 23 and 21 and 22
